# Target: T1, human LPA1 (Homo sapiens, UniProt Q92633)
# T1 construct: expressed in transfected cells; host or cells: Chinese hamster ovary (CHO) cells
# Experiment: LPA1 functional antagonist assay (calcium flux)
# Format: cell-based
# Details: CHO cells overexpressing human LPA1; inhibition of calcium flux induced by 10 nM LPA; read-out: hLPA1 IC50
# Procedure, shortened: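 Dye-loaded CHO cells overexpressing human LPA1 (30 min, 37 °C) were preincubated 20 min at room temperature with compound (0.08 nM–5 μM; 0.5% DMSO; HBSS, 20 mM HEPES, 0.1% fatty-acid-free BSA), then stimulated with 10 nM LPA. IC50 is the concentration inhibiting 50% of LPA-induced calcium flux, from a 4-parameter logistic fit.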
# T1 sequence (Q92633 whole entry): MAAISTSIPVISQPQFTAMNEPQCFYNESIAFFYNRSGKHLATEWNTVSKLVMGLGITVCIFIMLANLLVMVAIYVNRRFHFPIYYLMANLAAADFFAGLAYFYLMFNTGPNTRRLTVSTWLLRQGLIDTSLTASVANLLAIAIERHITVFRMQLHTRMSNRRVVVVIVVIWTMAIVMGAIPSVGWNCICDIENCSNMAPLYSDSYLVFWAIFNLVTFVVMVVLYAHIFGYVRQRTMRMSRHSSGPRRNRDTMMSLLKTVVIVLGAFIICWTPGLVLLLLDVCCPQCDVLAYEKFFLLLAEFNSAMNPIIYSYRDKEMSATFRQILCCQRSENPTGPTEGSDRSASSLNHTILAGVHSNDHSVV
row,IC50,SMILES
1,28 nM,"Cc1nc(-c2nnn(C)c2CN(C)c2nccc(OC3CC3)n2)ccc1O[C@H]1CCC[C@H](C(=O)O)C1 [Example 253, (1S,3S)-3-((6-(5-(((4-cyclopropoxypyrimidin-2-yl)(methyl)amino)methyl)-1-methyl-1H-1,2,3-triazol-4-yl)-2-methylpyridin-3-yl)oxy)cyclohexane-1-carboxylic acid]"
2,5.9 nM,"Cc1nc(-c2nnn(C)c2COc2cccc(C(C)C)c2)ccc1O[C@H]1CCC[C@H](C(=O)O)C1 [Example 254, (1S,3S)-3-((6-(5-((3-isopropylphenoxy)methyl)-1-methyl-1H-1,2,3-triazol-4-yl)-2-methylpyridin-3-yl)oxy)cyclohexane-1-carboxylic acid]"
3,12.9 nM,"Cc1nc(-c2nnn(C)c2COc2cc(OC(F)F)ncn2)ccc1O[C@H]1CCC[C@H](C(=O)O)C1 [Example 255, (1S,3S)-3-((6-(5-(((6-(difluoromethoxy)pyrimidin-4-yl)oxy)methyl)-1-methyl-1H-1,2,3-triazol-4-yl)-2-methylpyridin-3-yl)oxy)cyclohexane-1-carboxylicacid]"
4,22 nM,"CCc1cc(OCc2c(-c3ccc(O[C@H]4CCC[C@H](C(=O)O)C4)c(C)n3)nnn2C)ncn1 [Example 256, (1S,3S)-3-((6-(5-(((6-ethylpyrimidin-4-yl)oxy)methyl)-1-methyl-1H-1,2,3-triazol-4-yl)-2-methylpyridin-3-yl)oxy)cyclohexane-1-carboxylic acid]"
5,69 nM,"CCc1cc(OCc2c(-c3ccc(O[C@H]4CCC[C@H](c5nnn[nH]5)C4)c(C)n3)nnn2C)ncn1 [Example 257, 4-((4-(5-(((1S,3S)-3-(1H-tetrazol-5-yl)cyclohexyl)oxy)-6-methylpyridin-2-yl)-1-methyl-1H-1,2,3-triazol-5-yl)methoxy)-6-ethylpyrimidine]"
6,1880 nM,[2H]C([2H])([2H])C([2H])([2H])Oc1nccc(NCc2c(-c3ccc(O[C@H]4CCC[C@H](C(=O)O)C4)c(C)n3)nnn2C)n1 [Example 258]
7,131 nM,CCOc1ccnc(NCc2c(-c3cnc(O[C@H]4CCC[C@H](C(=O)O)C4)c(C)n3)nnn2C)n1 [Example 259]
8,3.4 nM,C=CCCc1ccnc(NCc2c(-c3ccc(O[C@H]4CCC[C@H](C(=O)O)C4)c(C)n3)nnn2C)n1 [Example 260]
9,124 nM,Cc1nc(-c2nnn(C)c2CNc2ccnc(OC3CC(F)(F)C3)n2)ccc1O[C@H]1CCC[C@H](C(=O)O)C1 [Example 261]
10,50 nM,Cc1nc(-c2nnn(C)c2CNc2nccc(OC3CC(F)(F)C3)n2)ccc1O[C@H]1CCC[C@H](C(=O)O)C1 [Example 262]
11,96 nM,CCCNc1nc(OCc2c(-c3ccc(O[C@H]4CCC[C@H](C(=O)O)C4)c(C)n3)nnn2C)ncc1F [Example 263]
12,76 nM,CCNc1nc(OCc2c(-c3ccc(O[C@H]4CCC[C@H](C(=O)O)C4)c(C)n3)nnn2C)ncc1F [Example 264]
13,44 nM,Cc1nc(-c2nnn(C)c2CNc2ncc(F)c(NCCOc3ccc(F)cc3)n2)ccc1O[C@H]1CCC[C@H](C(=O)O)C1 [Example 265]
14,87 nM,Cc1nc(-c2nnn(C)c2CNc2cccc(C(C)C)n2)ccc1O[C@H]1CCC[C@H](C(=O)O)C1 [Example 266]
15,278 nM,Cc1nc(-c2nnn(C)c2CNc2ccnc(C(C)C)n2)ccc1O[C@H]1CCC[C@H](C(=O)O)C1 [Example 267]
16,51 nM,CCOc1cccc(OCc2c(-c3ccc(O[C@H]4CCC[C@H](C(=O)O)C4)c(C)n3)nnn2C)c1 [Example 268]
17,45 nM,Cc1nc(-c2nnn(C)c2CN(C)c2nccc(OCC(C)F)n2)ccc1O[C@H]1CCC[C@H](C(=O)O)C1 (stereo partly shown) [Example 269]
18,5.3 nM,CCOc1ccnc(OCc2c(-c3ccc(O[C@H]4CCC[C@H](C(=O)O)C4)c(C)n3)nnn2C)c1 [Example 270]
19,16 nM,CCOc1ccnc(N(C)Cc2c(-c3ccc(O[C@H]4CCC[C@H](C(=O)O)C4)c(C)n3)nnn2C)n1 [Example 271]
20,163 nM,CCOc1cc(NCc2c(-c3ccc(O[C@H]4CCC[C@H](C(=O)O)C4)c(C)n3)nnn2C)ncn1 [Example 272]
21,13 nM,CCOc1cc(OCc2c(-c3ccc(O[C@H]4CCC[C@H](C(=O)O)C4)c(C)n3)nnn2C)ncn1 [Example 273]
22,26 nM,Cc1nc(-c2nnn(C)c2COc2cc(OC3CC3)ncn2)ccc1O[C@H]1CCC[C@H](C(=O)O)C1 [Example 274]

row,IC50,SMILES
1,15 nM,Cc1nc(-c2nnn(C)c2COc2cc(C3CC3)ncn2)ccc1O[C@H]1CCC[C@H](C(=O)O)C1 [Example 275]
2,8.7 nM,Cc1nc(-c2nnn(C)c2COc2cc(OC3CC3)ccn2)ccc1O[C@H]1CCC[C@H](C(=O)O)C1 [Example 276]
3,24 nM,Cc1nc(-c2nnn(C)c2COc2cc(C(C)C)ncn2)ccc1O[C@H]1CCC[C@H](C(=O)O)C1 [Example 277]
4,140 nM,COc1cc(OCc2c(-c3ccc(O[C@H]4CCC[C@H](C(=O)O)C4)c(C)n3)nnn2C)nc(OC)n1 [Example 279]
5,15.3 nM,CCc1ccnc(OCc2c(-c3ccc(O[C@H]4CCC[C@H](C(=O)O)C4)c(C)n3)nnn2C)c1 [Example 280]
6,365 nM,COc1ccnc(OCc2c(-c3ccc(O[C@H]4CCC[C@H](C(=O)O)C4)c(C)n3)nnn2C)c1 [Example 281]
7,37 nM,Cc1nc(-c2nnn(C)c2COc2ccnc(C3CC3)n2)ccc1O[C@H]1CCC[C@H](C(=O)O)C1 [Example 282]
8,8.8 nM,Cc1nc(-c2nnn(C)c2COc2cc(C3CC3)ccn2)ccc1O[C@H]1CCC[C@H](C(=O)O)C1 [Example 283]
9,147 nM,CCOc1cnnc(OCc2c(-c3ccc(O[C@H]4CCC[C@H](C(=O)O)C4)c(C)n3)nnn2C)c1 [Example 284]
10,61 nM,COCCCOc1cc(OCc2c(-c3ccc(O[C@H]4CCC[C@H](C(=O)O)C4)c(C)n3)nnn2C)ncn1 [Example 285]
11,135 nM,Cc1nc(-c2nnn(C)c2COc2cc(C(C)(C)C)ncn2)ccc1O[C@H]1CCC[C@H](C(=O)O)C1 [Example 286]
12,41 nM,Cc1nc(-c2nnn(C)c2COc2ccnc(C(C)C)n2)ccc1O[C@H]1CCC[C@H](C(=O)O)C1 [Example 287]
13,308 nM,Cc1nc(-c2nnn(C)c2COc2cc(C(F)(F)F)cc(C#N)n2)ccc1O[C@H]1CCC[C@H](C(=O)O)C1 [Example 288]
14,30 nM,Cc1nc(-c2nnn(C)c2COc2cc(OC(C)C)ncn2)ccc1O[C@H]1CCC[C@H](C(=O)O)C1 [Example 290]
15,3280 nM,COc1ncnc(OCc2c(-c3ccc(O[C@H]4CCC[C@H](C(=O)O)C4)c(C)n3)nnn2C)c1C [Example 291]
16,390 nM,Cc1nc(-c2nnn(C)c2COc2ncnc(OC3CC3)c2C)ccc1O[C@H]1CCC[C@H](C(=O)O)C1 [Example 292]
17,78 nM,CCc1ncnc(OCc2c(-c3ccc(O[C@H]4CCC[C@H](C(=O)O)C4)c(C)n3)nnn2C)c1C [Example 293]
18,85 nM,CCCc1cc(OCc2c(-c3ccc(O[C@H]4CCC[C@H](C(=O)O)C4)c(C)n3)nnn2C)ncn1 [Example 294]
19,21 nM,Cc1nc(-c2nnn(C)c2COc2cc(C(F)(F)F)ncn2)ccc1O[C@H]1CCC[C@H](C(=O)O)C1 [Example 295]
20,16 nM,Cc1nc(-c2nnn(C)c2COc2cc(C(F)F)ncn2)ccc1O[C@H]1CCC[C@H](C(=O)O)C1 [Example 296]
21,16 nM,[2H]C([2H])([2H])Oc1cc(OCc2c(-c3ccc(O[C@H]4CCC[C@H](C(=O)O)C4)c(C)n3)nnn2C)ncn1 [Example 297]

# Reference: patent US11267800B2, “Cyclohexyl acid triazole azines as LPA antagonists” (BRISTOL-MYERS SQUIBB COMPANY, priority 2017, dated 2022)
